Measurements from ChEMBL document CHEMBL4043258, “Polycyclic polyprenylated acylphloroglucinol derivatives from Hypericum scabrum” (2017).

These molecules were tested on HepG2 (assay: Hepatoprotective activity in human HepG2 cells assessed as inhibition of paracetamol-induced reduction in cell viability at 10 uM pretreated for 1 hr followed by paracetamol addition after 24 hrs by MTT assay relative to control).
Type: functional

Point of comparison: `CC(C)=CC[C@H]1C[C@@H](CC=C(C)C)C(C)(C)C(C(=O)c2ccccc2)C1=O` (single isomer, unassigned), inhibition at 10 µM 45%. Against it:
- CC(C)=CCC1=C2O[C@@H](C(C)(C)O)C[C@@]23C[C@@H](CC=C(C)C)C(C)(C)[C@@](C(=O)c2ccccc2)(C1=O)C3=O — lower, -9.68%
- COC(=O)c1cc(OC)c2c(c1-c1c(CO)cc(OC)c3c1OCO3)OCO2 [BICYCLOL] — lower, 28.3%
- CC[C@H](C)C(=O)[C@]12C(=O)[C@](C)(C[C@H](CC=C(C)C)[C@@]1(C)CCC=C(C)C)C(=O)C1=C2O[C@H](C(C)(C)O)C1 — lower, 15%
- CC(C)=CC[C@H]1C[C@@]23C[C@H](C(C)(C)O)OC2=C(C(=O)c2ccccc2)C(=O)[C@](C(=O)c2ccccc2)(C3=O)C1(C)C — lower, 13.4%
- CC(=O)CC1C2CC3(CC=C(C)C)C(=O)C1(C(=O)c1ccccc1)C(=O)C(CC=C(C)C)(C3=O)C2(C)C (stereo not given) — lower, 13.9%
- CC(C)=CC[C@@H]1C[C@@]2(CC=C(C)C)C(=O)[C@](C(=O)c3ccccc3)(C(=O)C3=C2O[C@H](C(C)(C)O)C3)C1(C)C — lower, 24.5%
- CC(C)=CC[C@H]1C[C@]2(CC=C(C)C)C(=O)C3=C(O[C@H](C(C)(C)O)C3)[C@@](C(=O)c3ccccc3)(C2=O)C1(C)C — lower, 19.5%
- COC(=O)[C@]1(CC=C(C)C)C[C@@H](CC=C(C)C)C(C)(C)[C@@H](C(=O)c2ccccc2)C1=O — lower, 32.3%
- CC(C)=CC[C@H]1C[C@@]2(CC=C(C)C)C(=O)C3=C(O[C@H](C(C)(C)O)C3)[C@](C(=O)c3ccccc3)(C2=O)C1(C)C — lower, 40.4%
